# In patent US9868717B2, “Tricyclic sulphonamide compounds and methods of making and using same” (Zafgen, Inc., priority 2012, dated 2018):
# Molecular target: T1, Human recombinant MetAP2 (Homo sapiens, UniProt P50579)
# T1 construct: made in house; host or cells: Sf9 insect cells
# Experiment: inhibition of recombinant human MetAP2 activity (MAS substrate, amino acid oxidase/Amplex red fluorescence)
# Format: biochemical
# Conditions: manganese enzyme, 30 minutes at 25° C., pH 7.5, 0.75 mM MAS substrate, 1% DMSO
# Description: Compounds are tested for their capacity to inhibit recombinant human MetAP2 activity using the following assay.
# Human recombinant MetAP2 expressed in Sf9 cells followed by affinity purification and EDTA treatment to remove endogenous active site cation was dialysed against MnCl2 to produce the manganese enzyme used in the assay. The assay was carried out for 30 minutes at 25° C. in 50 mM HEPES buffer containing 100 mM NaCl, pH 7.5 the presence of 0.75 mM Methionine-Alanine-Serine (MAS) substrate and 50 μg/ml amino acid oxidase using a dilution of purified MetAP2 giving >3-fold signal:noise. Cleavage of the substrate by MetAP2 and oxidation of free methionine by amino acid oxidase was detected and quantified using fluorescence generated by Amplex red (10-acetyl-3,7-dihydroxyphenoxazine) in combination with horseradish peroxidase which detects H2O2 released during the oxidation step. The fluorescent signal was detected using a multiwell fluorimeter. Compounds were diluted in DMSO prior to addition to assay buffer, the final DMSO concentration in the assay being 1%.
# The IC50 is defined as the concentration at which a given compound achieves 50% inhibition of control. IC50 values are calculated using the XLfit software package (version 2.0.5).
# T1 sequence (P50579 whole entry): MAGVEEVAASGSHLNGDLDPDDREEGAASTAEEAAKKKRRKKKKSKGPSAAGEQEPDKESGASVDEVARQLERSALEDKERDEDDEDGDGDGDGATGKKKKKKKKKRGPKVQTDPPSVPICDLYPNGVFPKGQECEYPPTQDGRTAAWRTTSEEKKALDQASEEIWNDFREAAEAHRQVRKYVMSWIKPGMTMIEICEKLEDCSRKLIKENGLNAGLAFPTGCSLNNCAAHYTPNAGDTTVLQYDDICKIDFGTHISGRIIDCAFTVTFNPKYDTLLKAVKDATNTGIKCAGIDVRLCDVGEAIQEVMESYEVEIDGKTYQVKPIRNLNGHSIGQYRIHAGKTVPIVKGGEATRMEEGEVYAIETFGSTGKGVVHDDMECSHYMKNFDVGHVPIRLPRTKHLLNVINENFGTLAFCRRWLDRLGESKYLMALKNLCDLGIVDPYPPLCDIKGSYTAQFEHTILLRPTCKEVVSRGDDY
row,Structure (SMILES),IC50 [nM]
1,"O=C(O)c1c(NS(=O)(=O)c2ccc(F)cc2/C=C2\CN3CCC2CC3)ccc2c1OC[C@@H]1C[C@H]21 (single isomer, unassigned) [Example 10]",< 50
2,"O=C(O)c1c(NS(=O)(=O)c2ccc(F)cc2/C=C2/CN3CCC2CC3)ccc2c1OC[C@@H]1C[C@H]21 (single isomer, unassigned) [Example 11]",< 50
3,"CCN1CCC/C(=C/c2cc(F)ccc2S(=O)(=O)Nc2ccc3c(c2C(=O)O)OC[C@@H]2C[C@H]32)C1 (single isomer, unassigned) [Example 13]",50 to 500
4,"CCN(CC)CC1CC1c1cc(F)ccc1S(=O)(=O)Nc1ccc2c(c1C(=O)O)OC[C@@H]1C[C@H]21 (stereo partly drawn) [Example 1, (1aR,7bS)-5-[2-(2-Diethylaminomethylcyclopropyl)-4-fluorobenzenesulfonyl-amino]-1,1a,2,7b-tetrahydrocyclopropa[c]chromene-4-carboxylic acid]",50 to 500
5,"O=C(O)c1c(NS(=O)(=O)c2ccc(F)cc2C2CC2CN2CCCC2)ccc2c1OC[C@@H]1C[C@H]21 (stereo partly drawn) [Example 4, (1aR,7bS)-5-{4-Fluoro-2-[2-(pyrrolidin-1-ylmethyl)cyclopropyl]benzene-sulfonylamino}-1,1a,2,7b-tetrahydrocyclopropa[c]chromene-4-carboxylic acid]",50 to 500

# Results, then the compound that gave them:
row,IC50 [nM],Structure (SMILES)
1,< 50,"CCN1CCC/C(=C\c2cc(F)ccc2S(=O)(=O)Nc2ccc3c(c2C(=O)O)OC[C@@H]2C[C@H]32)C1 (single isomer, unassigned) [Example 12]"
2,< 50,"CCN1CCCC(Cc2cc(F)ccc2S(=O)(=O)Nc2ccc3c(c2C(=O)O)OCC2CC32)C1 (single isomer, unassigned) [Example 14]"
3,< 50,"CCN1CCCC(Cc2cc(F)ccc2S(=O)(=O)Nc2ccc3c(c2C(=O)O)OCC2CC32)C1 (single isomer, unassigned) [Example 15]"
4,< 50,"CCN1[C@@H]2CC[C@H]1C[C@@H](Cc1cc(F)ccc1S(=O)(=O)Nc1ccc3c(c1C(=O)O)OC[C@@H]1C[C@H]31)C2 (single isomer, unassigned) [Example 18]"
5,< 50,"CCN1[C@@H]2CC[C@H]1C[C@H](Cc1cc(F)ccc1S(=O)(=O)Nc1ccc3c(c1C(=O)O)OC[C@@H]1C[C@H]31)C2 (single isomer, unassigned) [Example 19]"
6,< 50,"CCN1CCC(NC(=O)Cc2cc(F)ccc2S(=O)(=O)Nc2ccc3c(c2C(=O)O)OC[C@@H]2C[C@H]32)C1 (stereo in doubt) [Example 30, (1aR,7bS)-5-{2-[((S)-1-Ethylpyrrolidin-3-ylcarbamoyl)methyl]-4-fluoro-benzenesulfonylamino}-1,1a,2,7b-tetrahydrocyclopropa[c]chromene-4-carboxylic acid]"
7,< 50,"CCN(CC)CC(C)(C)Cc1cc(F)ccc1S(=O)(=O)Nc1ccc2c(c1C(=O)O)OC[C@@H]1C[C@H]21 [Example 5, (1aR,7bS)-5-[2-(3-Diethylamino-2,2-dimethylpropyl)-4-fluorobenzenesulfonyl-amino]-1,1a,2,7b-tetrahydrocyclopropa[c]chromene-4-carboxylic acid]"
8,< 50,"O=C(O)c1c(NS(=O)(=O)c2ccc(F)cc2C[C@@H]2CCNC2)ccc2c1OC[C@@H]1C[C@H]21 [Example 6, (1aR,7bS)-5-[4-Fluoro-2-((R)-pyrrolidin-3-ylmethyl)benzenesulfonylamino]-1,1a,2,7b-tetrahydrocyclopropa[c]chromene-4-carboxylic acid]"

# Same assay, conditions: manganese enzyme, 30 minutes at 25° C., pH 7.5, 0.75 mM MAS substrate, 1% DMSO; listed as First eluting enantiomer of (1aR,7bS)-5-[2-(2-diethylamino-methylcyclopropyl)-4-
row,IC50 [nM],Structure (SMILES)
1,< 50,CCN(CC)CC1CC1c1cc(F)ccc1S(=O)(=O)Nc1ccc2c(c1C(=O)O)OC[C@@H]1C[C@H]21 (stereo partly drawn) [Example 2]

# Same assay, conditions: manganese enzyme, 30 minutes at 25° C., pH 7.5, 0.75 mM MAS substrate, 1% DMSO; listed as Second eluting enantiomer of (1aR,7bS)-5-[2-(2-diethylamino-methylcyclopropyl)-4
row,IC50 [nM],Structure (SMILES)
1,50 to 500,CCN(CC)CC1CC1c1cc(F)ccc1S(=O)(=O)Nc1ccc2c(c1C(=O)O)OC[C@@H]1C[C@H]21 (stereo partly drawn) [Example 3]
